Results reported in patent US20160031935A1, “SMALL MOLECULE MODULATORS OF PCSK9 AND METHODS OF USE THEREOF” (ADAERATA, LIMITED PARTNERSHIP, priority 2013, published 2016).

Key:
Type in all cases: cell-based, human
[1] = tested on: HepG2 stable cells over-expressing WT PCSK9(+V5); test: MTT toxicity assay; settings: 33.3 μM or less; 24 h
Procedure: HepG2 stable cells over-expressing hPCSK9(+V5) were seeded in complete DMEM (high glucose+sodium pyruvate) (Wisent)+10% FBS media in 96-well plates (Greiner BioOne) at a density of 1×10^5 cells/well (100 μl) and incubated for 20 hours. Cells were rinsed once with 100 ul/well of serum free DMEM media, followed by addition of 100 μl/well of DMEM (high glucose+sodium pyruvate) (Wisent)+0.07% BSA (Sigma-Aldrich) media containing compound at various concentrations (11, 33, 100 μM) or DMSO control (0.4% final) followed by overnight (24 hours) incubation. The MTT assay (Promega) consisted of addition of 20 μl/well MTT reagent and incubation for 45 minutes at 37° C., following the manufacturer's instructions. Absorbance was recorded at 490 nm and corrected for background due to nonspecific absorbance (690 nm).
For the MTT toxicity assay, HepG2 stable cells over-expressing WT PCSK9(+V5) were seeded in 96-well plates (Greiner BioOne) and incubated for 20 hours. Following a brief wash, cells were incubated overnight (24 hours) in the presence of increasing concentrations (11, 33, 100 μM) of compounds or in the presence of DMSO (control). The MTT assay (Promega) consisted of addition of 20 μl/well MTT reagent and incubation for 45 minutes at 37° C., following the manufacturer's instructions. Absorbance was recorded at 490 nm and corrected for background due to nonspecific absorbance (690 nm). Compounds with a low toxicity at 33.3 μM or less were selected as exemplified in FIG. 3 for compounds 19, 22a, 23, 4 and 17.

[2] = tested on: cell surface LDLR activity; test: Dil-LDL uptake assay in HepG2 naïve cells; settings: 33.3 μM; HepG2 naïve cells
Procedure: HepG2 naive cells and HEK293 naive cells were plated in 96-well plates (CellBind black plate with clear bottom (Corning; Cat #3340)) at a density of 25,000 cells/well, in complete media (DMEM high glucose (+sodium pyruvate for HepG2) (Wisent)+10% FBS). After 20 hours, cells were washed for 30 min with serum free DMEM media (100 μl/well), the wash media was removed and replaced with 100 μl/well of incubation media (DMEM high glucose (+sodium pyruvate for HepG2) (Wisent)+0.07% BSA (Sigma-Aldrich)) containing compound at various concentrations ([…]) or DMSO control (0.4% final). Each condition was prepared in triplicates. After 6 hours incubation at 37° C., Dil-LDL (Biomedical Technologies (Cat #BT-904)) was added to the cell media (5 μl) at 5 μg/ml final concentration, and cells returned to tissue culture incubator for another 18 hours (a total of 24 hours incubation with the compounds). After 2 washes (200 μl/well) with ice-cold D-PBS (Wisent) and aspiration of the final wash, plates were scanned (bottom read) on a SpectraMax GeminiEM™ plate reader (Molecular Devices). For each well, raw Dil-LDL uptake was measured as the average fluorescence intensity (RFU) (ex: 520 nm/em: 575 nm, cutoff: 550 nm) of 9 readings in 3 different points in the well. Dil-LDL uptake in each well was corrected for total number of cells by performing a CyQuant™ cell assay (Invitrogen; Cat #C7026). Namely, after recording the Dil fluorescence, the plate was frozen overnight at −80° C. The next day, the plates were thawed at room temperature, the cells lysed according to the manufacturer's protocol, and the number of cells/well was determined by measuring the fluorescence (RFU) of the CyQuant green fluorescent dye bound to the cellular nucleic acids (ex: 485 nm/em: 538 nm, cutoff: 515 nm). For each condition, Dil-RFU was divided by CyQuant-RFU. Corrected dil-LDL uptake is reported as % DMSO control and was obtained from triplicate wells.
The PCSK9 inhibitory compounds were also characterized using a Dil-LDL fluorescent uptake assay as described in Poirier et al., J. Biol. Chem. 284: 28856-28864, 2009. The method entails the fluorescence measurement of the Dil-LDL cellular incorporation via LDLR internalization (a measurement of cell surface LDLR activity) in human hepatocyte derived HuH7 or HepG2 cell lines, or human embryonic HEK293 cells, in the presence or absence of compounds.
HepG2 naïve cells and HEK293 naïve cells were plated in 96-well plates (CellBind™ black plate with clear bottom (Corning; Cat #3340)). At 20 h post-seeding, cells were incubated in the absence (DMSO or negative control) or in the presence of different concentrations of compounds. Each condition was prepared in triplicates. After 6 hours incubation, Dil-LDL (Biomedical Technologies (Cat #BT-904)) was added to the cell media, and cells returned to tissue culture incubator for another 18 hours. Plates were scanned (bottom read) on a SpectraMax GeminiEM™ plate reader (Molecular Devices). For each well, raw Dil-LDL uptake was measured as the average fluorescence intensity (RFU) (ex: 520 nm/em: 575 nm, cutoff: 550 nm) of 9 readings in 3 different points in the well. Dil-LDL uptake in each well was corrected for total number of cells by performing a CyQuant™ cell assay (Invitrogen, Cat #C7026) according to the manufacturer's instructions. Corrected Dil-LDL uptake is reported as a % of DMSO control and was obtained from triplicate wells.

[3] = tested on: cell-surface LDLR; test: Immunofluorescence of cell-surface LDLR in HepG2 naïve cells; settings: 33.3 μM, 20 h, non-permeabilized cells
Procedure: HepG2 naïve cells were plated on Poly-L-Lysine-coated (50 ug/ml) round microscope cover slips 1.12 mm thickness (Fisherbrand 12CIR #1) that were placed in a 24-well cell culture plate. Seeding was performed in DMEM complete media (10% FBS) and 24 hours later the media was swapped for media (+0.07% BSA) containing 33.3 μM of the different inhibitor compounds (300 μl/well). A volume of DMSO equivalent to the volume of inhibitor compound was also diluted in 0.07% BSA containing media and used as a negative control. After a 20 hour incubation period, the cells were washed 3× with PBS and then fixed for 10 min with 3.7% paraformaldehyde. Immunofluorescence of human LDLR (green labeling) was performed under non-permeabilizing conditions. After an additional 3 washes with PBS, cells were blocked for 30 min with 1% BSA, followed by overnight incubation at 4° C. with primary antibody (1:200 goat polyclonal anti-hLDLR in 1% BSA, R&D Systems). […] Immunofluorescence analyses were performed with a confocal miscroscope (Zeiss LSM-710).
The PCSK9 inhibitory compounds were characterized by immunofluorescence for cell-surface LDLR and for human transferrin receptor, as control, in HepG2 naïve cells. Cells were plated on Poly-L-Lysine-coated (50 ug/ml) round microscope cover slips 1.12 mm thickness (Fisherbrand 12CIR #1) that were placed in a 24-well cell culture plate. […]

Row | Structure (SMILES) | toxicity in MTT assay [1] | Dil-LDL uptake (FIG. 5A, in words) [2] | LDLR at the cell surface (immunofluorescence) [3]
1 | COC(=O)CCC(NC(=O)[C@H](C)NC(=O)[C@H](Cc1ccccc1)NC(=O)[C@@H](NC(=O)OC)C(C)C)B(O)O (mixture of isomers) [Example 17, [(1R/S)-4-Methoxy-1-[(2S)-2-[(2S)-2-[(2S)-2-[(methoxycarbonyl)amino]-3-methylbutanamido]-3-phenylpropanamido]propanamido]-4-oxobutyl]boronic acid] | low toxicity | no measurable activity | 
2 | CCCCCCCCCC(=O)N[C@H](C(=O)N[C@@H](Cc1ccccc1)C(=O)NC(C)C(=O)NC(CCC(N)=O)C(C)O)C(C)C (single isomer, unassigned) [Example 22a] | low toxicity | increase in the Dil-LDL uptake | 
3 | COC(=O)N[C@H](C(=O)N[C@@H](Cc1ccccc1)C(=O)N[C@@H](C)C(=O)NCB(O)O)C(C)C [Example 1] |  | no measurable activity | 
4 | CC(C)[C@H](NC(=O)c1ccc(-c2ccccc2)cc1)C(=O)N[C@@H](Cc1ccccc1)C(=O)N[C@@H](C)C(=O)NCB(O)O [Example 2, {[(2S)-2-[(2S)-2-[(2S)-3-Methyl-2-[(4-phenylphenyl)formamido]butanamido]-3-phenylpropanamido]propanamido]methyl}boronic acid] |  | no measurable activity | 
5 | CCCCCCCCCC(=O)N[C@H](C(=O)N[C@@H](Cc1ccccc1)C(=O)N[C@@H](C)C(=O)NCB(O)O)C(C)C [Example 4, {[(2S)-2-[(2S)-2-[(2S)-2-Decanamido-3-methylbutanamido]-3-phenylpropanamido]propanamido]methyl}boronicacid] | low toxicity |  | 
6 | CCCCCCCCCC(=O)N[C@H](C(=O)N[C@@H](Cc1ccccc1)C(=O)N[C@@H](C)C(=O)NC(CCC(N)=O)C(O)C(F)(F)F)C(C)C (stereo partly drawn) [Example 19, N-((2S)-1-(((2S)-1-(((2S)-1-((6-Amino-1,1,1-trifluoro-2-hydroxy-6-oxohexan-3-yl)amino)-1-oxopropan-2-yl)amino)-1-oxo-3-phenylpropan-2-yl)amino)-3-methyl-1-oxobutan-2-yl)decanamide] | low toxicity | increase in the Dil-LDL uptake | increase of LDLR at the cell surface
7 | CCCCCCCCCC(=O)N[C@H](C(=O)N[C@@H](Cc1ccccc1)C(=O)N[C@@H](C)C(=O)NC(CCC(N)=O)C(O)CF)C(C)C (stereo partly drawn) [Example 21a, N-((2S)-1-(((2S)-1-(((2S)-1-((6-Amino-1-fluoro-2-hydroxy-6-oxohexan-3-yl)amino)-1-oxopropan-2-yl)amino)-1-oxo-3-phenylpropan-2-yl)amino)-3-methyl-1-oxobutan-2-yl)decanamide] |  | increase in the Dil-LDL uptake | 
8 | CC(C)[C@H](NC(=O)Cc1ccc(OC(F)(F)F)cc1)C(=O)N[C@@H](Cc1ccccc1)C(=O)N[C@@H](C)C(=O)NC(CCC(N)=O)C(O)C(F)(F)F (stereo partly drawn) [Example 23, 6,6,6-Trifluoro-5-hydroxy-4-((S)-2-((S)-2-((S)-3-methyl-2-(2-(4-(trifluoromethoxy)phenyl)acetamido)butanamido)-3-phenylpropanamido)propanamido)hexanamide] | low toxicity | increase in the Dil-LDL uptake | 
